Experimental data reported in ChEMBL document CHEMBL5291721, “A preclinical secondary pharmacology resource illuminates target-adverse drug reaction associations of marketed drugs” (Nat Commun, 2023).

How the values were obtained:
[1] = target: T1, Alpha-1A adrenergic receptor (Homo sapiens, UniProt P35348); assay type: functional, cell-based
T1 sequence (P35348 whole entry): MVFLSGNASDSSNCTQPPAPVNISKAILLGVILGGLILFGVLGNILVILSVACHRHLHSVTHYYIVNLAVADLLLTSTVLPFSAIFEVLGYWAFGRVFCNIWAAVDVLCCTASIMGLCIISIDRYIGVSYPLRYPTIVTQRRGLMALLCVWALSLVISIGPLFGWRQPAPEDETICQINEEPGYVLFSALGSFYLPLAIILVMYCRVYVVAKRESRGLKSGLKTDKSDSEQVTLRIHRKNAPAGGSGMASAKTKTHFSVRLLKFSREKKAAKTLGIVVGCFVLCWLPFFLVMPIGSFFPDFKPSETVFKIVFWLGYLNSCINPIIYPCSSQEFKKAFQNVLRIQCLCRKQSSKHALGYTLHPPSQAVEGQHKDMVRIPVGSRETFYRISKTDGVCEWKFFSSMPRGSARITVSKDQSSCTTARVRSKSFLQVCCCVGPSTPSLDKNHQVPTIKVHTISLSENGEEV

Androgen receptor = target: T2, Androgen receptor (Homo sapiens, UniProt P10275)
T2 sequence (P10275 whole entry): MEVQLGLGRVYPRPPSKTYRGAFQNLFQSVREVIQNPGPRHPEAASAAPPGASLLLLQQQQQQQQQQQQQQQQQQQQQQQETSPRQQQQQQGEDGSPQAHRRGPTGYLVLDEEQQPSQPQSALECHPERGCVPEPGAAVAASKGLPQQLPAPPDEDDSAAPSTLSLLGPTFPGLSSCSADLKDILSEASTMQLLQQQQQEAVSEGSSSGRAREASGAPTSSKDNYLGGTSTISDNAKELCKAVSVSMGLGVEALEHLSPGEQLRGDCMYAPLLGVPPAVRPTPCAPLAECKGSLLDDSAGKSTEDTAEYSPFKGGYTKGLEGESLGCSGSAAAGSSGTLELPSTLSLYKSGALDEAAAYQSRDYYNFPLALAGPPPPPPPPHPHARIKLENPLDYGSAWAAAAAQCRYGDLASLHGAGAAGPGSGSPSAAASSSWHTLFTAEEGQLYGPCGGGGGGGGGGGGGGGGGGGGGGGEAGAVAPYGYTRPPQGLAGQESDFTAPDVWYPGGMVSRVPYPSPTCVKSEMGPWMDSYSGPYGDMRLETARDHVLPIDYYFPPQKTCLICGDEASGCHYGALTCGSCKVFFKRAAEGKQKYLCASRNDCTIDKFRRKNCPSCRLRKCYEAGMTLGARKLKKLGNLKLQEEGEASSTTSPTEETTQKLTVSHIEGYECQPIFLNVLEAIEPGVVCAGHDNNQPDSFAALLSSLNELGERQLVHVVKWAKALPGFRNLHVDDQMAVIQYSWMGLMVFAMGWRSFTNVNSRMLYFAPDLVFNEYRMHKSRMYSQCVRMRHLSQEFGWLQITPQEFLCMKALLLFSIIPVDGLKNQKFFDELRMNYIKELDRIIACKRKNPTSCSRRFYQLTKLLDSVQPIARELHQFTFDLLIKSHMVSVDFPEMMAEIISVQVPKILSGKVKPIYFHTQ

[2] = target: Prostaglandin G/H synthase 1 (Homo sapiens, UniProt P23219); assay type: functional
Prostaglandin G/H synthase 1, sequence (P23219 whole entry): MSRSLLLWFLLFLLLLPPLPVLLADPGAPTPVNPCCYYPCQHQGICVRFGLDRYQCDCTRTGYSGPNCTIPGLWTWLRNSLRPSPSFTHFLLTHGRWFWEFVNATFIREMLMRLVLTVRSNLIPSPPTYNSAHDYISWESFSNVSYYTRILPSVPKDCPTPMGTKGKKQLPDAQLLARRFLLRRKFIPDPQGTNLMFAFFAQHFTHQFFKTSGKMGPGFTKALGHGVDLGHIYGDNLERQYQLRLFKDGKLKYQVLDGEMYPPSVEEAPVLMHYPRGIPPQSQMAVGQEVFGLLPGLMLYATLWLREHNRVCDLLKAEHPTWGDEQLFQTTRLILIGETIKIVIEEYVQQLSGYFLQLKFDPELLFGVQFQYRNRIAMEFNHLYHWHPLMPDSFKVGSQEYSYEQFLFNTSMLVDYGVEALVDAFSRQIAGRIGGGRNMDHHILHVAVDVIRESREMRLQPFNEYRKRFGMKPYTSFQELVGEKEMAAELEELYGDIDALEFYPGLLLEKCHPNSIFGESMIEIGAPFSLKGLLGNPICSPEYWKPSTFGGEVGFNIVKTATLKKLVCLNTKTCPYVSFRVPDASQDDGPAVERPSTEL

[3] = target: Sodium-dependent noradrenaline transporter (Homo sapiens, UniProt P23975)
Sodium-dependent noradrenaline transporter, sequence (P23975 whole entry): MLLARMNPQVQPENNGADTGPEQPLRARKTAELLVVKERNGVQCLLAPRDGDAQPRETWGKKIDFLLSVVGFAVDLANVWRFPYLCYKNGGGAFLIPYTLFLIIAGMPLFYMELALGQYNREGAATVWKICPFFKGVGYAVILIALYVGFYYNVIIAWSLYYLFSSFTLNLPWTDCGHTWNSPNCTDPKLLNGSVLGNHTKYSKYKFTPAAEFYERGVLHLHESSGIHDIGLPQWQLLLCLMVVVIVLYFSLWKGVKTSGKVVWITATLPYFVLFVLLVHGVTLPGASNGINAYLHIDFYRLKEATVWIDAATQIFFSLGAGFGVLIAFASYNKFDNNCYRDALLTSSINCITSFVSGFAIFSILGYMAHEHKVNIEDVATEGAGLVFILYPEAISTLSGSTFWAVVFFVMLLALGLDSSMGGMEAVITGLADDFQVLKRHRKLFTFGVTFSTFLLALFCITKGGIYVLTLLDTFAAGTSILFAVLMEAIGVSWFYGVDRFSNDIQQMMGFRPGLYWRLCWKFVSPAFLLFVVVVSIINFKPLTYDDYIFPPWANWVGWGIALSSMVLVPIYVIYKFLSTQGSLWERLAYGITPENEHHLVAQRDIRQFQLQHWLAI

[4] = target: Delta-type opioid receptor (Homo sapiens, UniProt P41143)
Delta-type opioid receptor, sequence (P41143 whole entry): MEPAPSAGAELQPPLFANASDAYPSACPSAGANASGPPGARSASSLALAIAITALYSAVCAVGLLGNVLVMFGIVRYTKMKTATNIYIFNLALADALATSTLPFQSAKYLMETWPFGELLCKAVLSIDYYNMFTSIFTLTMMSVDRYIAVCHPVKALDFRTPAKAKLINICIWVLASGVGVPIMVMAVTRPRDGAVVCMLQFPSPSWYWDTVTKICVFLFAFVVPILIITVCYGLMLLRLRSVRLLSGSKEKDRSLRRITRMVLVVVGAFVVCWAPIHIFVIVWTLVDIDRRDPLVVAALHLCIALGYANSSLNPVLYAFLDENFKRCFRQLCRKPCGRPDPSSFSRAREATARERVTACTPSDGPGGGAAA

[5] = target: T1, Alpha-1A adrenergic receptor; assay type: functional, cell-based; remark: listed apart in the source
[6] = target: T3, Muscarinic acetylcholine receptor M2 (Homo sapiens, UniProt P08172); assay type: functional, cell-based
T3 sequence (P08172 whole entry): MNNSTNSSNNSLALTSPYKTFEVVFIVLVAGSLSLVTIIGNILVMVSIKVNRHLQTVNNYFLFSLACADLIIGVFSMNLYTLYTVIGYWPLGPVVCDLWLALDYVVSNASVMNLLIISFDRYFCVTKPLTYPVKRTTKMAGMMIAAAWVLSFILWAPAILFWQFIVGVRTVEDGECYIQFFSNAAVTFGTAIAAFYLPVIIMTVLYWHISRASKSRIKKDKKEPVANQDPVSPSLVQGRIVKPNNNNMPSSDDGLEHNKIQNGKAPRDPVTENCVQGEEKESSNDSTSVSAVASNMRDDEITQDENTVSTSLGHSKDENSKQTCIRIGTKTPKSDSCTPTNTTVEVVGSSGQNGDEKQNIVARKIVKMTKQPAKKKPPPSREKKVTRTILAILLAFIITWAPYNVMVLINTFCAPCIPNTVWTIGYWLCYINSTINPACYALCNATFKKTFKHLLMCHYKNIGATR

Cannabinoid receptor 1 = Cannabinoid receptor 1 (Homo sapiens, UniProt P21554); assay type: functional, cell-based
Cannabinoid receptor 1, sequence (P21554 whole entry): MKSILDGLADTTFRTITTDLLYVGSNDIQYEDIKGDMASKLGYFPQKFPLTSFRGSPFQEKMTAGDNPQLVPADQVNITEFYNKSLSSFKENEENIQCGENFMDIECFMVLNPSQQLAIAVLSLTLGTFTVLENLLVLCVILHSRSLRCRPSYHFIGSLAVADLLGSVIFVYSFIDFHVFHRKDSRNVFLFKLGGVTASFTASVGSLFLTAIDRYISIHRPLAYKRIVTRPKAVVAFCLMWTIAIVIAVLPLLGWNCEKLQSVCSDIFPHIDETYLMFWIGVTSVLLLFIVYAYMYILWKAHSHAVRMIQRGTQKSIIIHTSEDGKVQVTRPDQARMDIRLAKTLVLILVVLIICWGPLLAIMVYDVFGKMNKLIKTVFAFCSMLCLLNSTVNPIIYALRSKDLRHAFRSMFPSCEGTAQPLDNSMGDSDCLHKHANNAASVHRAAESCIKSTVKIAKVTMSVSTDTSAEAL

Mu-type opioid receptor = Mu-type opioid receptor (Homo sapiens, UniProt P35372); experiment: biochemical; assay type: functional
Mu-type opioid receptor, sequence (P35372 whole entry): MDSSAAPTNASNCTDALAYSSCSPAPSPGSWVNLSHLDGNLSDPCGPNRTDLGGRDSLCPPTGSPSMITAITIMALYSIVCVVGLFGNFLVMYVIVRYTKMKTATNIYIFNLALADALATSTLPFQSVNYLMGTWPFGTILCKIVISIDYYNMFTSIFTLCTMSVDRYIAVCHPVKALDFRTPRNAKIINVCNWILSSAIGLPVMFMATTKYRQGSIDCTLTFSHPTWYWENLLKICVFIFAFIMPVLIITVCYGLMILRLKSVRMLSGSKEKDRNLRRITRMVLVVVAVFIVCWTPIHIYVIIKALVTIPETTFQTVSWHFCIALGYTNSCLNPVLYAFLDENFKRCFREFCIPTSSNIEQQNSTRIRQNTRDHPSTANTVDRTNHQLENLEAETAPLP
Note: assay procedure not described here.

Structure (SMILES) | AC50 [1] [µM] | AC50 (Androgen receptor) [µM] | AC50 [2] [µM] | AC50 [3] [µM] | AC50 [4] [µM] | AC50 [5] [µM] | AC50 [6] [µM] | AC50 (Cannabinoid receptor 1) [µM] | AC50 (Mu-type opioid receptor) [µM]
C[C@H](N[C@@H](CCc1ccccc1)C(=O)O)C(=O)N1Cc2ccccc2C[C@H]1C(=O)O | > 30 | > 30 | > 30 | > 30 |  |  |  |  | 
O=C(O)[C@@H]1C[C@@H](O)CN1 | > 30 | > 30 | > 30 | > 30 |  |  |  |  | 
CC(=O)[C@]1(N)Cc2c(O)c3c(c(O)c2[C@@H](O[C@H]2C[C@H](O)[C@H](O)CO2)C1)C(=O)c1ccccc1C3=O [AMRUBICIN] | 20.1 | > 30 | 2.81 | > 30 |  |  |  |  | 
NC(=O)[C@@H]1CC[C@@H]2CN1C(=O)N2OS(=O)(=O)O [AVIBACTAM] | > 30 | > 30 | > 30 | > 30 |  |  |  |  | 
CC(=O)OC[C@H]1O[C@@H](n2ncc(=O)[nH]c2=O)[C@H](OC(C)=O)[C@@H]1OC(C)=O [AZARIBINE] | > 30 | > 30 | > 30 | > 30 |  |  |  |  | 
O=C(/C=C/c1cccc(S(=O)(=O)Nc2ccccc2)c1)NO [BELINOSTAT] |  | > 30 | 6.9 | > 30 | > 30 |  |  |  | 
CC(C)(C)NC(=O)N[C@H](C(=O)N1C[C@H]2[C@@H]([C@H]1C(=O)NC(CC1CCC1)C(=O)C(N)=O)C2(C)C)C(C)(C)C (some centres not stated) [BOCEPREVIR] | > 30 | > 30 | > 30 | > 30 |  |  |  |  | 
NC[C@H]1CC[C@H](C(=O)Oc2ccc(CCC(=O)O)cc2)CC1 [CETRAXATE] |  |  | > 30 | > 30 | > 30 | > 30 | > 30 | > 30 | > 30
Cc1ncc2c(c1O)COC2c1ccc(Cl)cc1 (configuration not stated) [CICLETANINE] | > 30 | > 30 | > 30 | > 30 |  |  |  |  | 
N#Cc1ccc(Oc2ccc3c(c2)COB3O)cc1 [CRISABOROLE] | > 30 | > 30 | > 30 | > 30 |  |  |  |  | 
CC(=O)O[C@H]1Cc2ccccc2N(C(N)=O)c2ccccc21 [ESLICARBAZEPINE ACETATE] | > 30 | > 30 | > 30 | > 30 |  |  |  |  | 
CN1CCCN(C(c2ccccc2)c2ccc(Cl)cc2)CC1 (configuration not stated) [HOMOCHLORCYCLIZINE] | > 30 | > 30 | > 30 | 12.9 |  |  |  |  | 
OC[C@H]1O[C@@H](n2cnc3c2NC=NC[C@H]3O)C[C@@H]1O [PENTOSTATIN] |  |  |  |  | > 30 | > 30 | > 30 | > 30 | > 30
Cc1cccc(C)c1NC(=O)CC12CCCN1CCC2 [PILSICAINIDE] |  |  |  |  | > 30 | > 30 | > 30 | > 30 | > 30
CCCN1CC(NS(=O)(=O)N(CC)CC)CC2Cc3c(O)cccc3CC21 (configuration not stated) [QUINAGOLIDE] |  |  |  |  | > 30 | 0.45 | > 30 | > 30 | > 30
COC(=O)[C@H]1[C@H]2C[C@@H]3c4[nH]c5cc(OC)ccc5c4CCN3C[C@H]2C[C@@H](OC(=O)c2cc(OC)c(OC)c(OC)c2)[C@@H]1OC [RESERPINE] | > 30 |  | > 30 | 13.6 | > 30 |  | > 10 |  | > 30
O=C1OC(OC(=O)c2cccnc2Nc2cccc(C(F)(F)F)c2)c2ccccc21 (configuration not stated) [TALNIFLUMATE] |  |  |  |  | > 30 | > 30 | > 30 | > 30 | > 30
C[C@]12C=CC(=O)C=C1CC[C@@H]1[C@@H]2CC[C@]2(C)OC(=O)CC[C@@H]12 [TESTOLACTONE] |  |  |  |  | > 30 | > 30 | > 10 | > 30 | > 30
CCOC(=O)c1c(CSc2ccccc2)n(C)c2cc(Br)c(O)c(CN(C)C)c12 [UMIFENOVIR] |  |  |  |  | > 30 | > 30 | > 30 | > 30 | > 30
